The values below come from US6476056B2, “Heterocycle substituted aryloxyaniline derivatives and their use as MDR ligands” (Taisho Pharmaceutical Co., Ltd., priority 1997, dated 2002).

Molecules are shown by their SMILES.

This test addresses T1, MDR (Rattus norvegicus, UniProt P16257).
T1 construct: Crude mitochondria fractions prepared from rat cerebral cortex were used as a receptor sample; from tissue; host or cells: rat cerebral cortex, crude mitochondria fraction
In words: MDR receptor binding assay ([3H]PK11195 displacement). The settings on record: 50% inhibition of [3H]PK11195 (2 nM) binding; crude mitochondria fraction from rat cerebral cortex; 4° C., 90 minutes. As for the experimental part:
Experiment [MDR Receptor Binding Assay]
Crude mitochondria fractions prepared from rat cerebral cortex were used as a receptor sample, and [^3H]PK11195 was used as a [^3H]-labeled ligand.
A binding assay using the [^3H]-labeled ligand was carried out according to the following method as described in Journal of Pharmacology and Experimental Therapeutics, 262, 971(1992).
Preparation of Receptor Sample: Rat cerebral cortex was homogenized using a Teflon-coated homogenizer in a 10 mM HEPES buffer (pH 7.4) containing 0.32 M sucrose in ten volumes of the wet weight. The homogenate was centrifuged at 900×g for 10 minutes, and the resulting supernatant was centrifuged at 9,000×g for 10 minutes. The precipitate was suspended in a HEPES buffer to give a protein concentration of 1 mg/ml, and centrifuged at 12,000×g for 10 minutes. The resulting precipitate was suspended in a 50 mM HEPES buffer (pH 7.4) to give a crude mitochondria fraction.
MDR Binding Assay: Mitochondria sample (1.0 mg protein/ml), [^3H]PK11195 (2 nM) and the test drug were reacted at 4° C. for 90 minutes. After completion of the reaction, the reaction mixture was filtered with suction through a glass filter (GF/B) treated with 0.3% polyethyleneimine, and the radioactivity on the filter was measured by a liquid scintillation spectrometer.
The binding at the reaction in the presence of 10 μM PK11195 was defined as non-specific binding of [3H]PK11195, and the difference between total binding and non-specific binding was defined as specific binding.
By IC50 is commonly meant the concentration that inhibits the measured activity by half. Higher therefore signals a need for much substance. `CC(=O)N(Cc1ccccc1OC(C)C)c1ccccc1Oc1ccccc1` [Compound 007, N-Acetyl-N-(2-isopropoxybenzyl)-2-phenoxyaniline] registered a half-inhibitory concentration (IC50) of 0.0977 nM. That is a picomolar value. The compound `COc1ccccc1CN(C(C)=O)c1cc(Cl)ccc1Oc1ccccc1` [Compound 121] registered a half-inhibitory concentration (IC50) of 2.01 nM. `COc1ccncc1CN(C(C)=O)c1ccccc1Oc1ccccc1` [Compound 062] showed an IC50 of 1.05 nM.

`COc1ccccc1CN(C(=O)C(F)(F)F)c1ccccc1Oc1ccccc1` [Compound 080] showed an IC50 of 4.64 nM.

`COc1ncccc1CN(C(C)=O)c1ccccc1Oc1ccccc1` [Compound 061] displayed a concentration for half-maximal inhibition (IC50) of 0.498 nM. This IC50 is about 9.3-fold lower than that of the compound before.

The compound `COc1ccc(Oc2ccccc2N(Cc2ccccc2OC)C(C)=O)cc1` [Compound 105] returned an IC50 of 0.163 nM. With `CCCOc1ccccc1CN(C(C)=O)c1ccc(Cl)cc1Oc1ccccc1` [Compound 006] the figure was 0.677 nM; with `CC(=O)c1ccccc1CN(C(C)=O)c1ccccc1Oc1ccccc1` [Compound 047, N-Acetyl-N-(2-acetylbenzyl)-2-phenoxyaniline], 0.265 nM. The same measure for `COc1ccccc1CN(C(=O)CCl)c1ccccc1Oc1ccccc1` [Compound 081, N-chloroacetyl-N-(2-methoxybenzyl)-2-phenoxyaniline]: 0.343 nM. With `CC(=O)N(Cc1ccccc1Cl)c1ccccc1Oc1ccccc1` [Compound 029, N-Acetyl-N-(2-chlorobenzyl)-2-phenoxyaniline] the figure was 0.486 nM; with `COc1ccccc1CCN(C(C)=O)c1ccccc1Oc1ccccc1` [Compound 012, N-Acetyl-N-[2-(2-methoxyphenyl)ethyl]-2-phenoxyaniline], 0.453 nM. In turn, `CC(=O)N(Cc1cccc(Cl)c1)c1ccccc1Oc1ccccc1` [Compound 030] had a concentration for half-maximal inhibition (IC50) of 1.96 nM. With `CC(=O)N(Cc1ccccc1C=O)c1ccccc1Oc1ccccc1` [Compound 046, N-acetyl-N-(2-formylbenzyl)-2-phenoxyaniline] the figure was 0.376 nM; with `COc1ccccc1CN(C(C)=O)c1ccccc1Oc1ccccc1OC` [Compound 103], 0.722 nM. With `CC(=O)N(Cc1ccccc1OCC(C)C)c1ccccc1Oc1ccccc1` [Compound 009] the figure was 0.112 nM; with `COc1ccc(OC)c(CN(C(C)=O)c2cc(Cl)ccc2Oc2ccccc2)c1` [Compound 023], 0.424 nM; with `COc1cccnc1CN(C(C)=O)c1ccccc1Oc1ccccc1` [Compound 060], 0.955 nM.

Consider `CCCOc1ccccc1CN(C(C)=O)c1ccccc1Oc1ccccc1` [Compound 005], for which the IC50 was found to be 0.118 nM. Against the preceding compound, the IC50 is about 8.1-fold lower.

On to `COc1cccc(CN(C(C)=O)c2ccccc2Oc2ccccc2)c1OC` [Compound 015], for which the 50% inhibitory concentration (IC50) turned out to be 0.285 nM.

`COc1ccccc1CN(C(C)=O)c1ccccc1Oc1ccc(Cl)cc1` [Compound 110] yielded an IC50 of 8.9 nM. With `CCOc1ccccc1CN(C(C)=O)c1ccc(Cl)cc1Oc1ccccc1` [Compound 004] the figure was 0.791 nM.
